How the values were obtained:
[1] = system: Peripheral blood mononuclear cells (PBMCs); assay: Cytokine Induction in Human Cells, Test Method 2 (IFN-α and TNF-α by ELISA); assay type: cell-based; design: key: +: indicates that the compound induced the indicated cytokine at that particular concentration; −: indicates that the compound did not induce the indicated cytokine at that particular concentration; details: 18 to 24 hours
Source text: An in vitro human blood cell system is used to assess cytokine induction. Activity is based on the measurement of interferon and tumor necrosis factor (α) (IFN and TNF, respectively) secreted into culture media as described by Testerman et. al. In “Cytokine Induction by the Immunomodulators Imiquimod and S-27609”, Journal of Leukocyte Biology, 58, 365-372 (September, 1995).
Whole blood from healthy human donors is collected by venipuncture into EDTA vacutainer tubes. Peripheral blood mononuclear cells (PBMCs) are separated from whole blood by density gradient centrifugation using Histopaque®-1077. The PBMCs are washed twice with -Hank's Balanced Salts Solution and then are suspended at 3-4×10^6 cells/mL in RPMI complete. The PBMC suspension is added to 48 well flat bottom sterile tissue culture plates (Costar, Cambridge, Mass. or Becton Dickinson Labware, Lincoln Park, N.J.) containing an equal volume of RPMI complete media containing test compound.
The compounds are solubilized in dimethyl sulfoxide (DMSO). The DMSO concentration should not exceed a final concentration of 1% for addition to the culture wells. The compounds are generally tested at concentrations ranging from 0.12 to 30 μM.
The solution of test compound is added at 60 μM to the first well containing RPMI complete and serial 3 fold dilutions are made in the wells. The PBMC suspension is then added to the wells in an equal volume, bringing the test compound concentrations to the desired range (0.12 to 30 μM). The final concentration of PBMC suspension is 1.5-2×10^6 cells/mL. The plates are covered with sterile plastic lids, mixed gently and then incubated for 18 to 24 hours at 37° C. in a 5% carbon dioxide atmosphere.
Following incubation the plates are centrifuged for 5-10 minutes at 1000 rpm (˜200×g) at 4° C. The cell-free culture supernatant is removed with a sterile polypropylene pipet and transferred to sterile polypropylene tubes. Samples are maintained at −30 to −70° C. until analysis. The samples are analyzed for interferon (α) and for tumor necrosis factor (α) by ELISA
Interferon (α) concentration is determined by ELISA using a Human Multi-Species kit from PBL Biomedical Laboratories, New Brunswick, N.J. Results are expressed in pg/mL.
Tumor necrosis factor (α) (TNF)concentration is determined using ELISA kits available from Genzyme, Cambridge, Mass.; R&D Systems, Minneapolis, Minn.; or Phanningen, San Diego, Calif. Results are expressed in pg/mL.
The labeled compounds of Examples 2 and 3 were tested for their ability to induce cytokine biosynthesis using Test Method 2 described above.

[2] = system: human peripheral blood mononuclear cells; assay: Flow Cytometry Analysis: binding to mononuclear cells by fluorescence; assay type: cell-based; details: for binding to human peripheral blood mononuclear cells (fluorescence intensity histogram): FACScan flow cytometer
Protocol: Whole blood was collected by venipuncture into EDTA vacutainer tubes from healthy human donors. PBMCs were separated from whole blood by ficoll hypaque (Sigma Chemicals, St. Louis, Mo.) density gradient centrifugation as described in Testerman. The PBMCs were suspended at 2×10^6 cells/mL in RPMI 1640 medium containing 10% fetal bovine serum, 2 mM L-glutamine and penicillin/streptomycin solution (RPMI complete). […] Following incubation the cells were washed two times with staining buffer (Dulbecco's Phosphate Buffered Saline without calcium and magnesium, 1% heat inactivated fetal bovine serum, and 0.1% sodium azide). The cells were suspended in staining buffer and transferred to 12×75 mm polystyrene tubes for analysis by flow cytometry. Binding to mononuclear cells was determined by fluorescence using a FACScan flow cytometer (purchased from Becton Dickinson).
The histograms of FIGS. 1 and 2 plot the fluorescence intensity with the more highly fluorescent cell populations being seen further to the right. The peak area labeled as M3 in the histograms indicates the fluorescence binding to the monocyte population in the peripheral blood mononuclear cells.

[3] = system: Peripheral blood mononuclear cells (PBMCs); assay: Cytokine Induction in Human Cells, Test Method 1 (IFN by A549/encephalomyocarditis bioassay, TNF by ELISA); assay type: cell-based; details: 24 hours
Source text: An in vitro human blood cell system is used to assess cytokine induction by compounds of the invention. Activity is based on the measurement of interferon and tumor necrosis factor (α) (IFN and TNF, respectively) secreted into culture media as described by Testerman et. al. in “Cytokine Induction by the Immunomodulators Imiquimod and S27609”, Journal of Leukocyte Biology, 58, 365-372 (September, 1995).
Whole blood from healthy human donors is collected by venipuncture into EDTA vacutainer tubes. Peripheral blood mononuclear cells (PBMCs) are separated from whole blood by Histopaque®-1077 (Sigma Chemicals, St. Louis, Mo.) density gradient centrifugation. The PBMCs are washed twice with Hank's Balanced Salts Solution (Sigma) and are then suspended at 2×10^6 cells/mL in RPMI 1640 medium containing 10% fetal bovine serum, 2 mM L-glutamine and 1% penicillin/streptomycin solution (RPMI complete). 1 mL portions of PBMC suspension are added to 12 or 24 well flat bottom sterile tissue culture plates.
The compounds are solubilized in ethanol, dimethyl sulfoxide or pyrogen free water then diluted with tissue culture water, 0.01N sodium hydroxide or 0.01N hydrochloric acid (The choice of solvent will depend on the chemical characteristics of the compound being tested.). Ethanol or DMSO concentration should not exceed a final concentration of 1% for addition to the culture wells. The compounds are generally tested using a concentration range from about 0.01 μg/mL to about 50 μg/mL.
The solution of test compound is added to the wells containing 1 ml of PBMCs in media. The plates are covered with plastic lids, mixed gently and then incubated for 24 hours at 37° C. with a 5% carbon dioxide atmosphere.
Following incubation the cell-free culture supernatant is removed with a sterile polypropylene pipet and transferred to a 12×75 mm polypropylene tube. The tubes are then centrifuged at 1000 rpm ([…]) for 10 to 15 minutes at 4° C. The supernatant is removed and placed into 2 mL sterile freezing vials. Samples are maintained at −70° C. until analyzed for cytokines.
Interferon concentrations are determined by bioassay using A549 human lung carcinoma cells challenged with encephalomyocarditis. The details of the bioassay method have been described by G. L. Brennan and L. H. Kronenberg in “Automated Bioassay of Interferons in Micro-test Plates”, Biotechniques, June/July, 78, 1983, incorporated herein by reference. Briefly stated the method is as follows: A549 cells are incubated with dilutions of IFN standard or test samples at 37° C. for 24 hours. The incubated cells are then infected with an inoculum of encephalomyocarditis virus. The infected cells are incubated for an additional 24 hours at 37° C. before quantifying for viral cytopathic effect. The viral cytopathic effect is quantified by staining of the wells with a vital dye such as crystal violet followed by visual scoring of the plates. Results are expressed as alpha reference units/mL based on the value obtained for an NIH Human Leukocyte IFN standard.
Tumor necrosis factor (α) (TNF) concentration is determined using an ELISA kit available from Genzyrne, Cambridge, Mass. The results are expressed as pg/ml.
The labeled compound of Example 1 and the unlabeled intermediate (2-(4-amino-2-ethoxymethyl-1H-imidazo[4,5-c]quinolin-1-yl)ethaneamine trihydrochloride) were tested side by side for their ability to induce cytokine biosynthesis using Test Method 1 described above. The compound of Example 1 was solubilized in ethanol. The unlabeled intermediate was solubilized in tissue culture water.

melting point [°C]	Structure (SMILES)	IFN induction ([1]; concentration 0.014 μg/ml)	TNF induction ([1]; concentration 0.014 μg/ml)	IFN induction ([1]; concentration 0.041 μg/ml)	TNF induction ([1]; concentration 0.041 μg/ml)	IFN induction ([1]; concentration 0.12 μg/ml)	TNF induction ([1]; concentration 0.12 μg/ml)	IFN induction ([1]; concentration 0.37 μg/ml)	TNF induction ([1]; concentration 0.37 μg/ml)	IFN induction ([1]; concentration 1.11 μg/ml)	TNF induction ([1]; concentration 1.11 μg/ml)	IFN induction ([1]; concentration 3.33 μg/ml)	TNF induction ([1]; concentration 3.33 μg/ml)	IFN induction ([1]; concentration 10 μg/ml)	TNF induction ([1]; concentration 10 μg/ml)	IFN induction ([1]; concentration 30 μg/ml)	TNF induction ([1]; concentration 30 μg/ml)	binding to human peripheral blood mononuclear cells (fluorescence intensity histogram) ([2]; incubated 1 hour at 37° C.)	IFN ([3]; concentration 0.1 μg/ml) [U/ml]	TNF ([3]; concentration 0.1 μg/ml) [pg/mL]	further results
> 245	CCCCc1nc2c(N)nc3ccccc3c2n1CCNC(=S)Nc1ccc(-c2c3ccc(=O)cc-3oc3cc(O)ccc23)c(C(=O)O)c1 [Example 3, 5-{[({2-[4-Amino-2-butyl-1H-imidazo[4,5-c]quinolin-1-yl]ethyl}amino)carbonthioyl]amino}-2-(6-hydroxy-3-oxo-3H-xanthen-9-yl)benzoic Acid]	−	−	−	−	−	−	−	−	−	−	−	−	+	−	+	+				
	Cc1cc(C)n2c1C=C1C=CC(CCC(=O)NCCCCCC(=O)ON3C(=O)CCC3=O)=[N+]1[B-]2(F)F [BODIPY fluorophore, 6-((4,4-difluoro-5,7-dimethyl4-bora-3a,4a-diaza-s-indacene-3-propionyl)amino)hexanoic acid, succinimidyl ester, reference compound]																	does not			
	CCOCc1nc2c(N)nc3ccccc3c2n1CCNC(=O)CCCCCNC(=O)CCc1ccc2n1[B-](F)(F)[N+]1=C(C)C=C(C)C1=C2 [Example 1, N-[2-(4-Amino-2-ethoxymethyl-1H-imidazo[4,5-c]quinolin-1-yl)ethyl]-6-[(4,4-difluoro-5,7-dimethyl-4-bora-3a,4a-diaza-s-indacene-3-propionyl)amino]hexanoamide]																	binds to human peripheral blood mononuclear cells	554	46	IFN ([3]; concentration 0.01 μg/ml): 16 U/ml; TNF ([3]; concentration 0.01 μg/ml): 0 pg/mL; IFN ([3]; concentration 0.03 μg/ml): 47 U/ml; TNF ([3]; concentration 0.03 μg/ml): 42 pg/mL; IFN ([3]; concentration 0.3 μg/ml): 2878 U/ml; TNF ([3]; concentration 0.3 μg/ml): 73 pg/mL; IFN ([3]; concentration 1 μg/ml): 421 U/ml; TNF ([3]; concentration 1 μg/ml): 369 pg/mL; IFN ([3]; concentration 3 μg/ml): 62 U/ml; TNF ([3]; concentration 3 μg/ml): 869 pg/mL; binding to monocytes compared with other PBMCs ([2]; incubated 1 hour at 37° C., peak area M3 = monocyte population): monocytes bind more effectively than other PBMCs; binding to monocytes ([2]; incubated with human PBMCs at 4° C. for 1 hour): did not show significant binding
> 245	COCCc1nc2c(N)nc3ccccc3c2n1CCCCNC(=S)Nc1ccc(-c2c3ccc(=O)cc-3oc3cc(O)ccc23)c(C(=O)O)c1 [Example 2]	−	−	−	−	−	−	−	−	−	−	−	+	+	+	+	+				
	CCOCc1nc2c(N)nc3ccccc3c2n1CCN.Cl.Cl.Cl [Unlabeled Intermediate, 2-(4-amino-2-ethoxymethyl-1H-imidazo[4,5-c]quinolin-1-yl)ethaneamine trihydrochloride]																		421	0	IFN ([3]; concentration 0.3 μg/ml): 2878 U/ml; TNF ([3]; concentration 0.3 μg/ml): 0 pg/mL; IFN ([3]; concentration 1 μg/ml): 2878 U/ml; TNF ([3]; concentration 1 μg/ml): 49 pg/mL; IFN ([3]; concentration 3 μg/ml): 81 U/ml; TNF ([3]; concentration 3 μg/ml): 538 pg/mL; IFN ([3]; concentration 10 μg/ml): 140 U/ml; TNF ([3]; concentration 10 μg/ml): 2640 pg/mL
